Test results from BigSolDB 2.1.

COc1cc([N+](=O)[O-])ccc1N
solubility (mole fraction) (in 1,4-dioxane, 288.15 K): 0.0402
solubility (mole fraction) (in 1,4-dioxane, 293.15 K): 0.0468
solubility (mole fraction) (in 1,4-dioxane, 298.15 K): 0.0556
solubility (mole fraction) (in 1,4-dioxane, 303.15 K): 0.0652
solubility (mole fraction) (in 1,4-dioxane, 308.15 K): 0.0775
solubility (mole fraction) (in 1,4-dioxane, 313.15 K): 0.0925
solubility (mole fraction) (in 1,4-dioxane, 318.15 K): 0.111
solubility (mole fraction) (in 1,4-dioxane, 323.15 K): 0.133
solubility (mole fraction) (in DMSO, 293.15 K): 0.235
solubility (mole fraction) (in DMSO, 298.15 K): 0.249
solubility (mole fraction) (in DMSO, 303.15 K): 0.264
solubility (mole fraction) (in DMSO, 308.15 K): 0.281
solubility (mole fraction) (in DMSO, 313.15 K): 0.3
solubility (mole fraction) (in DMSO, 318.15 K): 0.321
solubility (mole fraction) (in DMSO, 323.15 K): 0.344
solubility (mole fraction) (in NMP, 278.15 K): 0.256
solubility (mole fraction) (in NMP, 283.15 K): 0.272
solubility (mole fraction) (in NMP, 288.15 K): 0.287
solubility (mole fraction) (in NMP, 293.15 K): 0.303
solubility (mole fraction) (in NMP, 298.15 K): 0.321
solubility (mole fraction) (in NMP, 303.15 K): 0.339
solubility (mole fraction) (in NMP, 308.15 K): 0.359
solubility (mole fraction) (in NMP, 313.15 K): 0.38
solubility (mole fraction) (in NMP, 318.15 K): 0.402
solubility (mole fraction) (in NMP, 323.15 K): 0.426
solubility (mole fraction) (in acetonitrile, 278.15 K): 0.0118
solubility (mole fraction) (in acetonitrile, 283.15 K): 0.0141
solubility (mole fraction) (in acetonitrile, 288.15 K): 0.0175
solubility (mole fraction) (in acetonitrile, 293.15 K): 0.0213
solubility (mole fraction) (in acetonitrile, 298.15 K): 0.0269
solubility (mole fraction) (in acetonitrile, 303.15 K): 0.0345
solubility (mole fraction) (in acetonitrile, 308.15 K): 0.0433
solubility (mole fraction) (in acetonitrile, 313.15 K): 0.0547
solubility (mole fraction) (in acetonitrile, 318.15 K): 0.0683
solubility (mole fraction) (in acetonitrile, 323.15 K): 0.0872
solubility (mole fraction) (in ethanol, 278.15 K): 0.00263
solubility (mole fraction) (in ethanol, 283.15 K): 0.00307
solubility (mole fraction) (in ethanol, 288.15 K): 0.00363
solubility (mole fraction) (in ethanol, 293.15 K): 0.00438
solubility (mole fraction) (in ethanol, 298.15 K): 0.00534
solubility (mole fraction) (in ethanol, 303.15 K): 0.00636
solubility (mole fraction) (in ethanol, 308.15 K): 0.0078
solubility (mole fraction) (in ethanol, 313.15 K): 0.00978
solubility (mole fraction) (in ethanol, 318.15 K): 0.0121
solubility (mole fraction) (in ethanol, 323.15 K): 0.015
solubility (mole fraction) (in ethyl acetate, 278.15 K): 0.0186
solubility (mole fraction) (in ethyl acetate, 283.15 K): 0.0227
solubility (mole fraction) (in ethyl acetate, 288.15 K): 0.0269
solubility (mole fraction) (in ethyl acetate, 293.15 K): 0.0326
solubility (mole fraction) (in ethyl acetate, 298.15 K): 0.0398
solubility (mole fraction) (in ethyl acetate, 303.15 K): 0.0486
solubility (mole fraction) (in ethyl acetate, 308.15 K): 0.0596
solubility (mole fraction) (in ethyl acetate, 313.15 K): 0.0716
solubility (mole fraction) (in ethyl acetate, 318.15 K): 0.0854
solubility (mole fraction) (in ethyl acetate, 323.15 K): 0.103
solubility (mole fraction) (in ethylene glycol, 278.15 K): 0.0017
solubility (mole fraction) (in ethylene glycol, 283.15 K): 0.00201
solubility (mole fraction) (in ethylene glycol, 288.15 K): 0.00243
solubility (mole fraction) (in ethylene glycol, 293.15 K): 0.00284
solubility (mole fraction) (in ethylene glycol, 298.15 K): 0.00345
solubility (mole fraction) (in ethylene glycol, 303.15 K): 0.00424
solubility (mole fraction) (in ethylene glycol, 308.15 K): 0.00527
solubility (mole fraction) (in ethylene glycol, 313.15 K): 0.00643
solubility (mole fraction) (in ethylene glycol, 318.15 K): 0.00796
solubility (mole fraction) (in ethylene glycol, 323.15 K): 0.00973
solubility (mole fraction) (in methanol, 278.15 K): 0.00238
solubility (mole fraction) (in methanol, 283.15 K): 0.0028
solubility (mole fraction) (in methanol, 288.15 K): 0.00333
solubility (mole fraction) (in methanol, 293.15 K): 0.00392
solubility (mole fraction) (in methanol, 298.15 K): 0.00466
solubility (mole fraction) (in methanol, 303.15 K): 0.00565
solubility (mole fraction) (in methanol, 308.15 K): 0.00682
solubility (mole fraction) (in methanol, 313.15 K): 0.00844
solubility (mole fraction) (in methanol, 318.15 K): 0.0104
solubility (mole fraction) (in methanol, 323.15 K): 0.0129
solubility (mole fraction) (in n-butanol, 278.15 K): 0.00135
solubility (mole fraction) (in n-butanol, 283.15 K): 0.00166
solubility (mole fraction) (in n-butanol, 288.15 K): 0.00202
solubility (mole fraction) (in n-butanol, 293.15 K): 0.00248
solubility (mole fraction) (in n-butanol, 298.15 K): 0.00304
solubility (mole fraction) (in n-butanol, 303.15 K): 0.00371
solubility (mole fraction) (in n-butanol, 308.15 K): 0.00457
solubility (mole fraction) (in n-butanol, 313.15 K): 0.0057
solubility (mole fraction) (in n-butanol, 318.15 K): 0.0072
solubility (mole fraction) (in n-butanol, 323.15 K): 0.00886
solubility (mole fraction) (in n-propanol, 278.15 K): 0.00199
solubility (mole fraction) (in n-propanol, 283.15 K): 0.00239
solubility (mole fraction) (in n-propanol, 288.15 K): 0.0029
solubility (mole fraction) (in n-propanol, 293.15 K): 0.0035
solubility (mole fraction) (in n-propanol, 298.15 K): 0.00423
solubility (mole fraction) (in n-propanol, 303.15 K): 0.00512
solubility (mole fraction) (in n-propanol, 308.15 K): 0.00616
solubility (mole fraction) (in n-propanol, 313.15 K): 0.00738
solubility (mole fraction) (in n-propanol, 318.15 K): 0.00876
solubility (mole fraction) (in n-propanol, 323.15 K): 0.0104
solubility (mole fraction) (in water, 278.15 K): 4e-06
solubility (mole fraction) (in water, 283.15 K): 6e-06
solubility (mole fraction) (in water, 288.15 K): 7e-06
solubility (mole fraction) (in water, 293.15 K): 9e-06
solubility (mole fraction) (in water, 298.15 K): 1.3e-05
solubility (mole fraction) (in water, 303.15 K): 1.7e-05
solubility (mole fraction) (in water, 308.15 K): 2.4e-05
solubility (mole fraction) (in water, 313.15 K): 3.2e-05
solubility (mole fraction) (in water, 318.15 K): 4.2e-05
solubility (mole fraction) (in water, 323.15 K): 5.5e-05
